The values below come from patent publication US20250188030A1, “Biphenyl and Phenylpyridine Compounds” (Pfizer Inc., priority 2023, published 2025).

One assay deals with H3K9AC (HT1080 cells). Kind of assay: H3K9AC Sandwich ELISA Assay in HT1080 cells (KAT2A primary cell-based screening assay). More on the design: species or system Human. The method in brief: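 HT1080 fibrosarcoma cells seeded 16 h, then treated 24 h at 37 °C with 10-point 1:3 compound dilutions (top 10 µM final, 0.1% DMSO). Acid lysates neutralized with butyrate/PMSF; H3K9ac measured by total-H3-capture sandwich ELISA with luminescent HRP readout, IC50 by four-parameter fit.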
On the technique in general: An ELISA detects its analyte on a solid surface through an enzyme-linked reagent.

A further assay has as its system MM.1S cells. Kind of assay: MM1.S 10 Day Proliferation Assay (CellTiter-Glo). It counts as cell-based, Human. As for the experimental part:
Human B lymphoblast cell line MM.1S was obtained from American Type Culture Collection (ATCC), Manassas, VA USA, Cat. MM.1S (ATCC® CRL-2974™). Cells were cultured in RPMI (Thermo Fisher Scientific/Gibco Life Technologies Cat. #111875-093) plus 10% (v/v) FBS (Thermo Fisher Scientific/Gibco Life Technologies Cat. #26140-079) and 1% Penicillin-Streptomycin (Thermo Fisher Scientific/Gibco Life Technologies Cat. #15070063) at 37° C. in 5% CO2.
MM1.S cells were trypsinized cell viability count performed, and cells suspended in complete media at 5,556 cells/ml. Cells were then seeded (90 μl/well) into a 96-well round black/clear bottom, ULA (Ultra-Low Attachment surface plate (Corning cat #4520) at a density of 500 cells/well. Cells were then incubated for 16 hours at 37° C. and 5% CO2. Compound dilution plates were prepared in 96-well, clear U-bottom, polypropylene plates (Corning 3365) in 100% DMSO at 10 mM stock concentration in duplicate wells, using a 10-point serial dilution (1:3 dilutions). Compounds were diluted to 1:100 in growth medium. Then 10 μl of diluted compounds were added to each well of the cell plates using a Beckman FX liquid handling system such that the highest compound concentration tested was 10 μM final, with a 0.1% final DMSO concentration in the total volume of 100 μl. Plates were incubated for 10 total days at 37° C. and 5% CO2. Fresh media containing compound was refreshed at 5 days treatment.
Finally, the treatment plates were removed from the incubator and 100 μl of CellTiter-Glo Luminescent reagent was added to each well, and plates were equilibrated in the dark for 30 minutes. Plates were read on the PHERAstar plate reader using the 96-well with Luminescent reading mode. IC50 values were calculated using a four-parameter fit with GraphPad Prism version 9.5.1 or in house modified IDBS ActivityBase data analyzing package.
On the technique in general: Cellular ATP, detected with luciferase, serves as a proxy for viable cell number.

The target of the next assay is KAT2A (Homo sapiens (Human), UniProt Q92830). Briefly: KAT2A acetyltransferase biochemical assay (RapidFire mass spectrometry, AcCoA to CoA).
[1] abbreviates: Homo sapiens, HT-1080, H3K9AC sandwich ELISA.
Where [2] appears, read: read-out: KAT2A Ki at 1 μM AcCoA, 5 μM H3 1-21 peptide, 0.5 nM KAT2A, 90-minute reaction.

Like-named read-outs stand apart in the source and are kept apart here. Some results are limits rather than exact numbers.

Chain of KAT2A (Q92830 whole entry): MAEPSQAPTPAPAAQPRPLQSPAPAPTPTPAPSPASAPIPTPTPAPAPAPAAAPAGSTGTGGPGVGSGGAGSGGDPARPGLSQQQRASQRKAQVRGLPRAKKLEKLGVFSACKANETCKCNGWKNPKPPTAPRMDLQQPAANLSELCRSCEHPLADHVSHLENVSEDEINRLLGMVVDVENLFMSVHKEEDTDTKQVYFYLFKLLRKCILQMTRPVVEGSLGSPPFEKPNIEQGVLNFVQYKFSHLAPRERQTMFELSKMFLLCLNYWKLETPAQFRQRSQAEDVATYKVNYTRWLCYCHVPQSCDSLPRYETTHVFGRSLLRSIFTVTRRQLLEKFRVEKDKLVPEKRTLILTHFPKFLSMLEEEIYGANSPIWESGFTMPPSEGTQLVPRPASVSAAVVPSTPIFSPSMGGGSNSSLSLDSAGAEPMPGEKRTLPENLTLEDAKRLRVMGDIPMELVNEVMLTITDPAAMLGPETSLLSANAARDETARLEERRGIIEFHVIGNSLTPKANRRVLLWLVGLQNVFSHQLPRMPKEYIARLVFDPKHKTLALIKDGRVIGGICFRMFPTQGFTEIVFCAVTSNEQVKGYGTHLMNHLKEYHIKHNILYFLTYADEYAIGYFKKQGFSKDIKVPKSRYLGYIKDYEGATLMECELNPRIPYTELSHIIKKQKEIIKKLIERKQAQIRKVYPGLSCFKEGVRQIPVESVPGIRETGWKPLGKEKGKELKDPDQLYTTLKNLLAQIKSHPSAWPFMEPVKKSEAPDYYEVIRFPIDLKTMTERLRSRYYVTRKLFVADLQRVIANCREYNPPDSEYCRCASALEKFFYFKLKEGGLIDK

As for `CCS(=O)(=O)NC(=O)C(C)(C)c1ccc(O[C@@H]2CC[C@@H](NC(=O)[C@@]3(F)CNCC(C)(C)C3)C2)c(-c2cccc(F)c2C2CCC2)c1` (single isomer, unassigned) [Example B22], the IC50 with H3K9AC (HT1080 cells) (setting [1]) was found to be 2.38 nM; in the assay on MM.1S cells (Homo sapiens, MM1.S, 240 h), 2.51 nM. Besides, the Ki at KAT2A (setting [2]) was 0.09 nM.
As to `O=C(O)c1ccc(O[C@@H]2CC[C@@H](NC(=O)[C@@]3(F)CNC4(CCCC4)C3)C2)c(-c2cccc(F)c2C2CCC2)c1` (single isomer, unassigned) [Example A36], the 50% inhibitory concentration (IC50) turned out to be 0.7 nM with H3K9AC (HT1080 cells) (H3K9AC sandwich ELISA) and 3.5 nM in the assay on MM.1S cells (Homo sapiens, MM1.S, 240 h). For the same compound, the Ki on KAT2A (setting [2]) was found to be 0.1 nM.
Turning to `CC(C)c1ccccc1-c1cc(C(=O)O)ccc1O[C@@H]1CC[C@@H](NC(=O)[C@@]2(F)CNC3(CCCC3)C2)C1` (single isomer, unassigned) [Example A40], the IC50 with H3K9AC (HT1080 cells) (H3K9AC sandwich ELISA) and in the assay on MM.1S cells was greater than 1000 nM each time. Besides, the inhibition constant Ki on KAT2A (setting [2]) is greater than 99.9 nM.
As to `CC1(C)C[C@](F)(C(=O)N[C@@H]2CC[C@@H](Oc3ccc(C(C)(C)C(=O)O)cc3-c3cccc(F)c3C3CCC3)C2)CN1` (single isomer, unassigned) [Example A4], the IC50 in the assay with H3K9AC (HT1080 cells) (setting [1]) is 76.4 nM; with MM.1S cells (Homo sapiens, MM1.S, 240 h) it was 147 nM. The inhibition constant Ki on KAT2A (setting [2]) is 4.12 nM.
Turning to `C[C@H](C(=O)O)c1ccc(O[C@@H]2CC[C@@H](NC(=O)[C@@H]3CC(C)(C)CN3C)C2)c(-c2cccc(F)c2C2CCC2)c1` (single isomer, unassigned) [Example D14], the IC50 is 25.9 nM in the assay with H3K9AC (HT1080 cells) (setting [1]) and 171 nM in the assay on MM.1S cells (Homo sapiens, MM1.S, 240 h). The Ki on KAT2A (setting [2]) is 8.31 nM.
Turning to `CCc1c(F)cccc1-c1cc(CC(=O)NS(=O)(=O)C2(C)CC2)ccc1O[C@@H]1CC[C@@H](NC(=O)[C@@]2(F)CNCC(C)(C)C2)C1` (single isomer, unassigned) [Example C57], the IC50 in the assay with H3K9AC (HT1080 cells) (H3K9AC sandwich ELISA) is 4.1 nM; in the assay on MM.1S cells (Homo sapiens, MM1.S, 240 h) it was 7.6 nM. Further, the Ki at KAT2A (setting [2]) came to 0.05 nM.
As to `CC(C)(C(=O)NS(=O)(=O)C1(C)CC1)c1ccc(O[C@@H]2CC[C@@H](NC(=O)[C@@]3(F)CNC4(CCC4)C3)C2)c(-c2cccc(F)c2C2CC2)c1` (single isomer, unassigned) [Example C22], the IC50 in the assay with H3K9AC (HT1080 cells) (H3K9AC sandwich ELISA) is 4.49 nM; in the assay with MM.1S cells it was 7.8 nM. Besides, the Ki on KAT2A (setting [2]) was 0.14 nM.
Take `CC(C)S(=O)(=O)NC(=O)C(C)(C)c1ccc(O[C@@H]2CC[C@@H](NC(=O)[C@@]3(F)CNC(C)(C)C3)C2)c(-c2cccc(F)c2C2CCC2)c1` (single isomer, unassigned) [Example B18]: the IC50 with H3K9AC (HT1080 cells) (H3K9AC sandwich ELISA) was found to be 121 nM; in the assay on MM.1S cells, 1270 nM. On KAT2A (setting [2]), the Ki turned out to be 16.1 nM.
For the compound `CC(C)c1c(F)cccc1-c1cc(CC(=O)O)ccc1O[C@@H]1CC[C@@H](NC(=O)[C@@]2(F)CNC3(CCC3)C2)C1` [Example A32, [3′-fluoro-6-{[(1R,3R)-3-{[(7S)-7-fluoro-5-azaspiro[3.4]octane-7-carbonyl]amino}cyclopentyl]oxy}-2′-(propan-2-yl)[1,1′-biphenyl]-3-yl]acetic acid], the IC50 in the assay on H3K9AC (HT1080 cells) (setting [1]) stood at 4.5 nM; in the assay on MM.1S cells (Homo sapiens, MM1.S, 240 h) it was 31.3 nM. Besides, on KAT2A (setting [2]), the Ki turned out to be 0.84 nM.
Turning to `CCc1c(F)cccc1-c1cc(C(C)(C)C(=O)NS(=O)(=O)C(C)C)ccc1O[C@@H]1CC[C@@H](NC(=O)[C@@]2(F)CNCC(C)(C)C2)C1` (single isomer, unassigned) [Example C45], the 50% inhibitory concentration (IC50) in the assay on H3K9AC (HT1080 cells) (H3K9AC sandwich ELISA) was 9.6 nM; in the assay on MM.1S cells (Homo sapiens, MM1.S, 240 h), 52.4 nM. At KAT2A (setting [2]), the inhibition constant Ki was 0.11 nM.
Consider `CN1CC(C)(C)C[C@H]1C(=O)N[C@@H]1CC[C@@H](Oc2cccc(CC(=O)NS(N)(=O)=O)c2-c2ccccc2C2CCC2)C1` (atropisomer, axis not shown) [Example I5, N-[(1R,3R)-3-({(1ψ)-2′-cyclobutyl-6-[2-oxo-2-(sulfamoylamino)ethyl][1,1′-biphenyl]-2-yl}oxy)cyclopentyl]-1,4,4-trimethyl-L-prolinamide], for which the IC50 with H3K9AC (HT1080 cells) (setting [1]) was 59 nM; in the assay with MM.1S cells (Homo sapiens, MM1.S, 240 h), 88.7 nM. For the same compound, the Ki on KAT2A (setting [2]) amounted to 13.6 nM.
As to `CC(C)c1c(F)cccc1-c1cc(C(C)(C)C(=O)O)ccc1O[C@@H]1CC[C@@H](NC(=O)[C@@]2(F)CNC3(CCC3)C2)C1` (single isomer, unassigned) [Example A21], the IC50 with H3K9AC (HT1080 cells) (H3K9AC sandwich ELISA) was greater than 1000 nM; in the assay on MM.1S cells it was greater than 10000 nM. Also, the Ki on KAT2A (setting [2]) is greater than 99.9 nM.
On to `CN1CC(C)(C)C[C@H]1C(=O)N[C@@H]1CC[C@@H](Oc2ccc(C(C)(C)C(=O)O)cc2-c2cccc(F)c2C2CCC2)C1` [Example D1, 2-[2′-cyclobutyl-3′-fluoro-6-({(1R,3R)-3-[(1,4,4-trimethyl-L-prolyl)amino]cyclopentyl}oxy)[1,1′-biphenyl]-3-yl]-2-methylpropanoic acid], for which the IC50 with H3K9AC (HT1080 cells) (setting [1]) is 52.8 nM; in the assay with MM.1S cells (Homo sapiens, MM1.S, 240 h), 419 nM. For the same compound, on KAT2A (setting [2]), the Ki amounted to 4.05 nM.
As for `CCc1c(F)cccc1-c1cc(C(C)(C)C(=O)NS(C)(=O)=O)ccc1O[C@@H]1CC[C@@H](NC(=O)[C@@]2(F)CNC3(CCC3)C2)C1` (single isomer, unassigned) [Example C11], the IC50 in the assay with H3K9AC (HT1080 cells) (setting [1]) was determined as 21.6 nM; with MM.1S cells (Homo sapiens, MM1.S, 240 h), 253 nM. Besides, the Ki at KAT2A (setting [2]) turned out to be 2.22 nM.
Taken in the same sequence, the figures for `CCc1c(F)cccc1-c1cc(CC(=O)NS(=O)(=O)C(C)C)ccc1O[C@@H]1CC[C@@H](NC(=O)[C@@]2(F)CNC3(CCC3)C2)C1` [Example C58, (7S)-N-[(1R,3R)-3-({2′-ethyl-3′-fluoro-5-[2-oxo-2-(propane-2-sulfonamido)ethyl][1,1′-biphenyl]-2-yl}oxy)cyclopentyl]-7-fluoro-5-azaspiro[3.4]octane-7-carboxamide] were 3.4 nM, 8.1 nM and 0.11 nM.
In the case of `CN(C)S(=O)(=O)NC(=O)Cc1cccc(O[C@@H]2CC[C@@H](NC(=O)[C@@]3(F)CNC4(CCC4)C3)C2)c1-c1cccc(F)c1C1CCC1` (atropisomer, axis not shown) [Example I17, (7S)-N-[(1R,3R)-3-({(1ψ)-2′-cyclobutyl-6-[2-(dimethylsulfamamido)-2-oxoethyl]-3′-fluoro[1,1′-biphenyl]-2-yl}oxy)cyclopentyl]-7-fluoro-5-azaspiro[3.4]octane-7-carboxamide], the IC50 with H3K9AC (HT1080 cells) (H3K9AC sandwich ELISA) was 0.6 nM; in the assay with MM.1S cells (Homo sapiens, MM1.S, 240 h), 1.8 nM. Moreover, on KAT2A (setting [2]), the Ki was 0.02 nM.
For `CC(C(=O)NS(C)(=O)=O)c1ccc(O[C@@H]2CC[C@@H](NC(=O)[C@@H]3CC(C)(C)CN3C)C2)c(-c2cccc(F)c2C2CCC2)c1` (single isomer, unassigned) [Example E8], the IC50 in the assay with H3K9AC (HT1080 cells) (setting [1]) was 4.76 nM; in the assay on MM.1S cells, 16.4 nM. Moreover, on KAT2A (KAT2A Ki at 1 μM AcCoA, 5 μM H3 1-21 peptide, 0.5 nM KAT2A, 90-minute reaction), the affinity, expressed as Ki, was 0.29 nM.
Consider `O=C(Cc1ccc(O[C@@H]2CC[C@@H](NC(=O)[C@@]3(F)CNC4(CCC4)C3)C2)c(-c2cccc(F)c2C2CCC2)c1)NS(=O)(=O)C1CC1` (single isomer, unassigned) [Example C31], for which the IC50 with H3K9AC (HT1080 cells) (setting [1]) was found to be 1.78 nM; with MM.1S cells (Homo sapiens, MM1.S, 240 h) it was 2.85 nM. Also, the Ki on KAT2A (setting [2]) came out at 0.02 nM.
For the compound `CC1(C)CNC[C@](F)(C(=O)N[C@@H]2CC[C@@H](Oc3ccc(C(C)(C)C(=O)NS(C)(=O)=O)cc3-c3cccc(F)c3C3CCC3)C2)C1` (single isomer, unassigned) [Example C37], the IC50 came to 3 nM in the assay with H3K9AC (HT1080 cells) (setting [1]) and 11 nM in the assay on MM.1S cells (Homo sapiens, MM1.S, 240 h). Also, on KAT2A (setting [2]), the Ki amounted to 0.06 nM.
For `O=C(O)Cc1ccc(O[C@@H]2CC[C@@H](NC(=O)[C@@]3(F)CNC4(CCC4)C3)C2)c(-c2cccc(F)c2C2CCC2)c1` (single isomer, unassigned) [Example A7], in that order: 4.45 nM, 30.9 nM and 1.25 nM.

The IC50 is the point on the concentration scale where inhibition reaches its midpoint. A lower IC50 goes with inhibition by little substance. The Ki is the equilibrium dissociation constant of an inhibitor or competing ligand from its target.
